Six molecules from ChEMBL document CHEMBL3621040, “Dicarabrol, a new dimeric sesquiterpene from Carpesium abrotanoides L” (Bioorg Med Chem Lett, 2015) can be followed below.

The test system of assay [1] is Influenza A virus. Nature of the assay: Antiviral activity against Influenza A virus H1N1 infected in MDCK cells assessed as protection against virus-induced cytopathic effect after 48 hrs by crystal violet staining. Type of assay: functional, organism-based. For orientation: Damage to the host cells serves as the signal in cytopathic effect assays.
Assay [2] concerns Influenza A virus. The experiment in a line: Antiviral activity against Influenza A virus H3N2 infected in MDCK cells assessed as protection against virus-induced cytopathic effect after 48 hrs by crystal violet staining. The assay is classed as functional, organism-based.
Assay [3] relates to Mycobacterium tuberculosis. The experiment in a line: Antimycobacterial activity against Mycobacterium tuberculosis H37Ra after 7 days by alamar blue dye assay. Type of assay: functional. Particulars: 168 h. In general terms: Resazurin is reduced to fluorescent resorufin, in cell work by metabolically active cells.
The nature of assay [4]: Cytotoxicity against human SGC7901 cells after 72 hrs by CCK8 assay. The assay is classed as functional, cell-based. To be noted: SGC-7901, 72 h. (In general: Tetrazolium dyes change colour on reduction, which living cells bring about.)
A further assay deals with U-937. Nature of the assay: Cytotoxicity against human U937 cells after 72 hrs by CCK8 assay. Type of assay: functional, cell-based. To be noted: U-937, 72 h.
The next assay concerns HeLa. Nature of the assay: Cytotoxicity against human HeLa cells after 72 hrs by CCK8 assay. Type of assay: functional, cell-based.
For a further assay, the system named is MOLT-4. The experiment in a line: Cytotoxicity against human MOLT4 cells after 72 hrs by CCK8 assay. Type of assay: functional, cell-based. To be noted: MOLT-4, 72 h.
The next assay concerns MCF7. The experiment in a line: Cytotoxicity against human MCF7 cells after 72 hrs by CCK8 assay. The assay is classed as functional, cell-based. Particulars: MCF7, 72 h.
Another assay has as its system K562. Nature of the assay: Cytotoxicity against human K562 cells after 72 hrs by CCK8 assay. Particulars: K562, 72 h. The assay is classed as functional, cell-based.
Another assay deals with A549. Nature of the assay: Cytotoxicity against human A549 cells after 72 hrs by CCK8 assay. The assay is classed as functional, cell-based. To be noted: A549, 72 h.
A further assay relates to NCI-H1975. The experiment in a line: Cytotoxicity against human NCI-H1975 cells after 72 hrs by CCK8 assay. The assay is classed as functional, cell-based. To be noted: NCI-H1975, 72 h.
The next assay relates to DU-145. The experiment in a line: Cytotoxicity against human DU145 cells after 72 hrs by CCK8 assay. Type of assay: functional, cell-based. To be noted: DU-145, 72 h.
Another assay concerns HL-60. Nature of the assay: Cytotoxicity against human HL60 cells after 72 hrs by CCK8 assay. Particulars: HL-60, 72 h. Type of assay: functional, cell-based.

The structures appear in SMILES notation. ≈ marks a conversion by molar mass, not a printed value.

One may read the IC50 as the point on the concentration scale where inhibition reaches its midpoint. For orientation: MIC means the least concentration at which growth counts as inhibited. Higher therefore signals a need for much substance.

As to `CCOC(=O)C1=C[C@@H](OC(CC)CC)[C@H](NC(C)=O)[C@@H](N)C1` [OSELTAMIVIR], the IC50 is 25 nM with Influenza A virus [1] and 15 nM with Influenza A virus [2].
In [3], `NNC(=O)c1ccncc1` [ISONIAZID] gave an MIC of 2 µM (≈ 0.274 µg/mL).
With `C=C1C(=O)O[C@@H]2C[C@]3(C)[C@@H](CCC(C)O)C[C@@]4(C(=O)O[C@@H]5C[C@@H]6[C@@H](CC[C@H](C)O)[C@@H]6C[C@@H]54)[C@@H]3C[C@H]12` (stereo not given in full), the IC50 in assay [4] is 710 nM; in the assay on U-937, 150 nM; in the assay with HeLa it was 610 nM; in the assay on MOLT-4 it was 1300 nM; in the assay on MCF7, 3300 nM; in the assay with K562, 1200 nM. In addition, the IC50 in the assay on Influenza A virus [1] was 15900 nM; with Influenza A virus [2], 30000 nM; in the assay with A549, 2700 nM; in the assay on NCI-H1975, 1400 nM; with DU-145, 310 nM; in the assay on HL-60, 100 nM. 3.7 µM (≈ 1.8 µg/mL) was the least that counted as inhibitory in assay [3] (MIC).
As for `CC(=O)O[C@H]1C(=O)[C@@]2(C)[C@H]([C@H](OC(=O)c3ccccc3)[C@]3(O)C[C@H](OC(=O)[C@H](O)[C@@H](NC(=O)c4ccccc4)c4ccccc4)C(C)=C1C3(C)C)[C@]1(OC(C)=O)CO[C@@H]1C[C@@H]2O` [PACLITAXEL], the IC50 in assay [4] amounted to 9800 nM; in the assay on U-937, 2100 nM; in the assay on MOLT-4 it was 2700 nM; with K562, 3800 nM; in the assay with A549, 2100 nM; in the assay on NCI-H1975, 2800 nM. Besides, the IC50 with DU-145 is 3100 nM; with HL-60, 3800 nM.
`C=C1C(=O)O[C@H]2C[C@@H](C)[C@@H]3CC[C@H](O)[C@@]3(C)C[C@H]12` [PSEUDOGUAIANOLIDE]: the IC50 in assay [4] was determined as 22000 nM; in the assay with U-937, 2200 nM; in the assay on HeLa, 6000 nM; with MOLT-4 it was 5500 nM; in the assay with MCF7, 11000 nM; in the assay with K562 it was 17000 nM. The IC50 was determined as 29300 nM in the assay on Influenza A virus [1]; 47300 nM with Influenza A virus [2]; 6200 nM in the assay with A549; 13000 nM in the assay with NCI-H1975; 3100 nM in the assay with DU-145; 2400 nM in the assay on HL-60. It took 7.6 µM (≈ 1.9 µg/mL) to inhibit growth in [3] (MIC).
Consider `C=C1C(=O)O[C@H]2C[C@@]3(C)O[C@@H]3CC[C@@]3(C)O[C@@H]3C[C@H]12`, for which the IC50 amounted to 6400 nM in [4]; 210 nM with U-937; 1000 nM with HeLa; 1200 nM in the assay with MOLT-4; 4100 nM in the assay with MCF7; 1700 nM with K562. In addition, the IC50 came to 10800 nM in the assay with Influenza A virus [1]; 11600 nM with Influenza A virus [2]; 2000 nM with A549; 5400 nM with NCI-H1975; 380 nM with DU-145; 180 nM in the assay on HL-60. In addition, in assay [3], the MIC was found to be 6 µM (≈ 1.59 µg/mL).
